system: Daudi cells (AID positive); assay: Compound primary screening: cell death in AID positive Daudi cells (Cell-Titer Glo, Day 7); assay type: cell-based; conditions: Homo sapiens, 168 h; Daudi cells, AID positive; cell death on Day 7, Cell-Titer Glo; read-out: Cellular activity in AID + (Daudi)
Experimental: Example 149. Compound Primary Screening
AID expressing cells are dependent upon RAD51 for survival; inhibiting RAD51 in AID positive cells results in a cytotoxic effect.
A 96 well u-bottom plate was prepared by writing the experiment number, plate number, date and initials in the top right corner of the plate lid. With a sterile 300 ml reservoir, and 25 ml serological pipette, evaporation buffer media was pipetted into reservoir in 25 ml increments. Using the liquid handler, 150 ul of evaporation buffer media was pipetted from reservoir into rows A and H, and Columns 1 and 12 of the 96 well u-bottom plate. Cell cultures were counted to obtain the density of cells per ml, and the culture viability. The cell density information was used to obtain 1,000,000 cells from culture using a 5 mL serological pipette into an epi tube. The cell density information from the culture was used to calculate the number of cells and volume of media needed for the assay to seed 1250 cells in 130 ul of media per available culture well in the 96 well u-bottom plate. Rows B through F were used for cells (50 wells in total), with row G left for an empty media control. The calculation was overestimated by 10 mL to account for the dead volume in the 300 ml reservoir. Once the media volume was calculated, the appropriate volume of media was pipetted in 25 mL increments into the 250 mL bottle using a 25 mL serological pipette. The 250 ml bottle was capped tightly, and placed into a 37° C. water bath for 2 minutes. While the culture media was warming, 10 mL of fresh media was pipetted from the 500 mL culture media bottle into a sterile 25 mL reservoir. Using the Eppendorf multichannel pipette, 130 ul of media was pipetted from the 25 mL reservoir into row G of the 96 well u-bottom plate. Once the 250 mL bottle of media was warmed, the volume of culture needed was pipetted into the bottle, and mixed gently with a 25 mL serological pipette as to not create bubbles, and then the contents of the bottle were pipetted into a new 300 mL reservoir. Using the liquid handler, 130 ul of culture was pipetted from the 300 mL reservoir into rows B through F of the 96 well u-bottom plate. Once the culture was added, the plate was placed into a 37° C. incubator until the compound master plate was prepared for use.
Two 96 well u-bottom plates were prepared by writing the master plate name in the upper right corner of the plate lid. Labeling one DMSO master and the other Media Master. The compounds of interest were obtained from the laboratory freezer, and placed into a 25 well storage box with a lid, and set the box aside. The compounds were vortexed after thawing but before use. Using an automatic multichannel pipette, 20 ul of 100% DMSO was pipetted into wells B3-B11 through G3-G11 of the DMSO master plate. For each compound on the master plate, 50 ul of the compound were pipetted in the appropriate well of row 2 (reference plate map to determine appropriate well). A serial dilution was prepared beginning by aspirating 20 ul from row 2 and mixing with row 3, repeating until row 11 was reached. Using the liquid handler, 194 ul of Daudi media was dispensed into wells B2-B11 through G2-G11 of the Media master plate. Using the liquid handler, 6 ul from the DMSO master plate was aspirated and dispensed into the media master plate, mixing 100 ul twice.
Compounds from master plate were then added to the culture plate. The culture plates were removed from the incubator, and set inside the biosafety cabinet. Using a liquid handler, 20 ul from wells B2 to B11 through G2 to G11 of master plate were aspirated, and dispensed into wells B2 to B11 through G2 to G11 of culture plate. This set was continued with each culture plate. Once the culture plates acquired their 20 ul of compound dilutions, they were placed back into the incubator, until their reads on Day 7 of experiment.
Cell death was measured on Day 7 of the experiment using Cell-Titer Glo and a Promega Plate reader.

| SMILES | EC50 [µM] |
| --- | --- |
| CC(C)OC(=O)N[C@H]1CC[C@H](c2ncc(-c3ccc(-c4cncnc4)cc3S(=O)(=O)NC(C)(C)C)s2)CC1 [Compound 12, isopropyl (trans-4-(5-(2-(N-(tert-butyl)sulfamoyl)-4-(pyrimidin-5-yl)phenyl)thiazol-2-yl)cyclohexyl)carbamate] | > 10 |
| CCNS(=O)(=O)c1cc(N)ccc1-c1cnc([C@H]2CC[C@H](NC(=O)OC3CC3)CC2)s1 [Compound 108, cyclopropyl trans-N-[4-[5-[4-amino-2-(ethylsulfamoyl)phenyl]thiazol-2-yl]cyclohexyl]carbamate] | < 0.1 |
| CCNS(=O)(=O)c1cc(C(=O)OC)ccc1-c1cnc([C@H]2CC[C@H](NC(=O)OC(C)C)CC2)s1 [Compound 71, methyl trans-3-(ethylsulfamoyl)-4-[2-[4-(isopropoxycarbonyl-amino)cyclohexyl]thiazol-5-yl]benzoate] | 1 to 10 |
| CC(C)OC(=O)N[C@H]1CC[C@H](c2ncc(-c3ccc(-c4cncc(CN(C)C)c4)cc3S(=O)(=O)NC(C)(C)C)s2)CC1 [Compound 16, isopropyl (trans-4-(5-(2-(N-(tert-butyl)sulfamoyl)-4-(5-((dimethylamino)methyl)pyridin-3-yl)phenyl)thiazol-2-yl)cyclohexyl)carbamate] | 1 to 10 |
| CC(C)OC(=O)N[C@H]1CC[C@H](c2ncc(-c3ccc(-c4ccc5ncsc5c4)cc3S(=O)(=O)NC(C)(C)C)s2)CC1 [Compound 15, isopropyl (trans-4-(5-(4-(benzo[d]thiazol-6-yl)-2-(N-(tert-butyl)sulfamoyl)phenyl)thiazol-2-yl)cyclohexyl)carbamate] | 1 to 10 |
| CCNS(=O)(=O)c1cc(CC(=O)N2CC(O)C2)ccc1-c1cnc([C@H]2CC[C@H](NC(=O)OC(C)C)CC2)s1 [Compound 85, isopropyl trans-N-[4-[5-[4-[2-oxo-2-(3-hydroxyazetidin-1-yl)ethyl]-2-(ethyl-sulfamoyl)phenyl]thiazol-2-yl]cyclohexyl]carbamate] | 0.1 to 1 |
| CCNS(=O)(=O)c1cc(Nc2cn[nH]n2)ccc1-c1cnc([C@H]2CC[C@H](NC(=O)OC(C)C)CC2)s1 [Compound 149, isopropyl trans-N-[4-[5-[2-(ethylsulfamoyl)-4-(2H-triazol-4-ylamino)phenyl]thiazol-2-yl]cyclohexyl]carbamate] | < 0.1 |
| CCNS(=O)(=O)c1cc(Nc2ccnc(Cl)n2)ccc1-c1cnc([C@H]2CC[C@H](NC(=O)OC(C)C)CC2)s1 [Compound 155, isopropyl trans-N-[4-[5-[4-[(2-chloropyrimidin-4-yl)amino]-2-(ethylsulfamoyl)phenyl]thiazol-2-yl]cyclohexyl]carbamate] | 0.1 to 1 |
| CCNS(=O)(=O)c1cc(CO)ccc1-c1cnc([C@H]2CC[C@H](NC(=O)OC(C)C)CC2)s1 [Compound 72, isopropyl trans-N-[4-[5-[2-(ethylsulfamoyl)-4-(hydroxymethyl)phenyl]thiazol-2-yl]cyclohexyl]carbamate] | 1 to 10 |
| Cc1c[nH]c2cc(-c3ccc(-c4cnc([C@H]5CC[C@H](NC(=O)OC(C)C)CC5)s4)c(S(=O)(=O)NC(C)(C)C)c3)ccc12 [Compound 21, isopropyl (trans-4-(5-(2-(N-(tert-butyl)sulfamoyl)-4-(3-methyl-1H-indol-6-yl)phenyl)thiazol-2-yl)cyclohexyl)carbamate] | 1 to 10 |
| CC(C)NC(=O)Cc1ccc(-c2cnc([C@H]3CC[C@H](NC(=O)OC4COC4)CC3)s2)c(S(=O)(=O)NC(C)(C)C)c1 [Compound 41, oxetan-3-yl (trans-4-(5-(2-(N-(tert-butyl)sulfamoyl)-4-(2-(isopropylamino)-2-oxoethyl)phenyl)thiazol-2-yl)cyclohexyl)carbamate] | 0.1 to 1 |
| CC(C)(C)NS(=O)(=O)c1cc(CC(=O)NCc2ccccc2)ccc1-c1cnc([C@H]2CC[C@H](NC(=O)OC3COC3)CC2)s1 [Compound 98, oxetan-3-yl trans-N-[4-[5-[4-[2-(benzylamino)-2-oxo-ethyl]-2-(tert-butylsulfamoyl)phenyl]thiazol-2-yl]cyclohexyl]carbamate] | < 0.1 |
| CCNS(=O)(=O)c1cc(C(N)=O)ccc1-c1cnc([C@H]2CC[C@H](NC(=O)OC(C)C)CC2)s1 [Compound 49, isopropyl trans-N-[4-[5-[4-carbamoyl-2-(ethylsulfamoyl)phenyl]thiazol-2-yl]cyclohexyl]carbamate] | 0.1 to 1 |
| CCNS(=O)(=O)c1cc(N2CCC(O)CC2)ccc1-c1cnc([C@H]2CC[C@H](NC(=O)OC(C)C)CC2)s1 [Compound 130, isopropyl trans-N-[4-[5-[2-(ethylsulfamoyl)-4-[4-hydroxypiperidin-1-yl]phenyl]thiazol-2-yl]cyclohexyl]carbamate] | 0.1 to 1 |
| CCNS(=O)(=O)c1cc(C(=O)O)ccc1-c1cnc([C@H]2CC[C@H](NC(=O)OC(C)C)CC2)s1 [Compound 48, trans-3-(ethylsulfamoyl)-4-[2-[4-(isopropyloxycarbonyl-amino)cyclohexyl]thiazol-5-yl]benzoic acid] | 1 to 10 |
| CCNS(=O)(=O)c1cc(CC(=O)N2CCCC2)ccc1-c1cnc([C@H]2CC[C@H](NC(=O)OC(C)C)CC2)s1 [Compound 82, isopropyl trans-N-[4-[5-[4-[2-oxo-2-(pyrrolidin-1-yl)ethyl]-2-(ethyl-sulfamoyl)phenyl]thiazol-2-yl]cyclohexyl]carbamate] | 0.1 to 1 |
| CC(C)OC(=O)N[C@H]1CC[C@H](c2ncc(-c3ccc(-c4ccc(O)nc4)cc3S(=O)(=O)NC(C)(C)C)s2)CC1 [Compound 7, isopropyl (trans-4-(5-(2-(N-(tert-butyl)sulfamoyl)-4-(6-hydroxypyridin-3-yl)phenyl)thiazol-2-yl)cyclohexyl)carbamate] | 1 to 10 |
| CC(C)COCc1ccc(-c2cnc([C@H]3CC[C@H](NC(=O)OC(C)C)CC3)s2)c(S(=O)(=O)NC(C)(C)C)c1 [Compound 33, isopropyl (trans-4-(5-(2-(N-(tert-butyl)sulfamoyl)-4-(isobutoxymethyl)phenyl)thiazol-2-yl)cyclohexyl)carbamate] | 0.1 to 1 |
| CCNS(=O)(=O)c1cc(Nc2cc(CC)cnn2)ccc1-c1cnc([C@H]2CC[C@H](NC(=O)OC(C)C)CC2)s1 [Compound 158, isopropyl trans-N-[4-[5-[4-[(5-ethylpyridazin-3-yl)amino]-2-(ethylsulfamoyl)phenyl]thiazol-2-yl]cyclohexyl]carbamate] | 0.1 to 1 |
| CC(C)OC(=O)N[C@H]1CC[C@H](c2ncc(-c3ccc(OC(C)C)cc3S(=O)(=O)NC(C)(C)C)s2)CC1 [Compound 27, isopropyl (trans-4-(5-(2-(N-(tert-butyl)sulfamoyl)-4-isopropoxyphenyl)thiazol-2-yl)cyclohexyl)carbamate] | 1 to 10 |
| COc1ncc(-c2ccc(-c3cnc([C@H]4CC[C@H](NC(=O)OC(C)C)CC4)s3)c(S(=O)(=O)NC(C)(C)C)c2)c(OC)n1 [Compound 8, isopropyl (trans-4-(5-(2-(N-(tert-butyl)sulfamoyl)-4-(2,4-dimethoxypyrimidin-5-yl)phenyl)thiazol-2-yl)cyclohexyl)carbamate] | 0.1 to 1 |
| CCNS(=O)(=O)c1cc(COCC(C)C)ccc1-c1cnc([C@H]2CC[C@H](NC(=O)OC(C)C)CC2)s1 [Compound 51, isopropyl (trans-4-(5-(2-(N-ethylsulfamoyl)-4-(isobutoxymethyl)phenyl)thiazol-2-yl)cyclohexyl)carbamate] | 0.1 to 1 |

From patent publication US11932636B2, “RAD51 inhibitors” (Cyteir Therapeutics, Inc., priority 2019, dated 2024)
